Results published in the supplement of paper PMC10307832.

Experiments:
Test in all cases: relative viability (nuclei count vs DMSO), 5 days (fraction); higher = more cells survive
[1] = compound: COc1cc2nccc(Oc3ccc(NC(=O)C4(C(=O)Nc5ccc(F)cc5)CC4)cc3)c2cc1OC [Cabozantinib] + C[C@@H](Oc1cc(-c2cnn(C3CCNCC3)c2)cnc1N)c1c(Cl)ccc(F)c1Cl [Crizotinib] (partner 1 µM)
Outline: (§1)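 Lung cancer cell lines in 1536-well plates got either a single drug or a fixed anchor-drug dose together with five library-drug doses (not always all listed) in √10 steps, by pin tool, on the day after seeding. Nuclei were counted after 5 days, and relative viability is the treated-to-vehicle ratio of nuclei counts. Values are medians of duplicate plates.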

[2] = compound: COc1cc2nccc(Oc3ccc(NC(=O)C4(C(=O)Nc5ccc(F)cc5)CC4)cc3)c2cc1OC [Cabozantinib] + CC(C)C[C@H](NC(=O)[C@H](Cc1ccccc1)NC(=O)c1cnccn1)B(O)O [Bortezomib] (partner 0.002 µM)
Outline: as §1

[3] = compound: COc1cc2nccc(Oc3ccc(NC(=O)C4(C(=O)Nc5ccc(F)cc5)CC4)cc3)c2cc1OC [Cabozantinib] + Cc1nc(Nc2ncc(C(=O)Nc3c(C)cccc3Cl)s2)cc(N2CCN(CCO)CC2)n1 [Dasatinib] (partner 0.075 µM)
Outline: as §1

[4] = compound: C1=CC(=CC=C1NC(=S)NNC2=C(C=C(C=C2[N+](=O)[O-])C(F)(F)F)[N+](=O)[O-])F [Kobe2602] + CC(C)C[C@H](NC(=O)[C@H](Cc1ccccc1)NC(=O)c1cnccn1)B(O)O [Bortezomib] (partner 0.002 µM)
Outline: as §1

Cell Line | relative viability ([1]; first compound 0.02 µM) | relative viability ([1]; first compound 0.06325 µM) | relative viability ([1]; first compound 0.2 µM) | relative viability ([1]; first compound 0.6325 µM) | relative viability ([1]; first compound 2 µM) | relative viability ([2]; first compound 0.02 µM) | relative viability ([2]; first compound 0.06325 µM) | relative viability ([2]; first compound 0.2 µM) | relative viability ([2]; first compound 0.6325 µM) | relative viability ([2]; first compound 2 µM) | relative viability ([3]; first compound 0.06325 µM) | relative viability ([3]; first compound 0.2 µM) | relative viability ([3]; first compound 0.6325 µM) | relative viability ([3]; first compound 2 µM) | relative viability ([4]; first compound 0.2 µM) | relative viability ([4]; first compound 0.6325 µM) | relative viability ([4]; first compound 2 µM) | relative viability ([4]; first compound 6.325 µM) | relative viability ([4]; first compound 20 µM) | relative viability ([3]; first compound 0.02 µM)
NCI-H1792 | 0.841 | 1.1 | 0.999 | 0.962 | 1.03 | 0.848 | 1.19 | 0.858 | 0.946 | 0.975 | 0.878 | 0.77 | 0.727 | 0.644 | 0.965 | 0.901 | 1.09 | 0.985 | 0.986 | –
NCI-H2405 | 0.933 | 0.862 | 0.872 | 0.873 | 0.895 | 0.947 | 1.06 | 0.989 | 0.871 | 1.04 | 0.232 | 0.215 | 0.212 | 0.215 | 1.05 | 0.999 | 0.936 | 0.968 | 0.999 | 0.171
ABC-1 | 1.23 | 1.08 | 1.19 | 0.952 | 1.01 | 0.263 | 0.263 | 0.294 | 0.351 | 0.279 | 0.567 | 0.596 | 0.55 | 0.525 | 0.42 | 0.256 | 0.283 | 0.35 | 0.336 | 0.515
201T | 1.04 | 1.02 | 0.988 | 0.956 | 0.976 | 1.14 | 1.15 | 1.05 | 1.08 | 1.12 | 0.549 | 0.573 | 0.534 | 0.545 | 0.956 | 1.05 | 1.12 | 1.18 | 1.13 | 0.385
NCI-H1755 | 0.972 | 0.964 | 0.942 | 0.797 | 0.781 | 0.962 | 1 | 0.903 | 0.895 | 0.928 | 0.479 | 0.396 | 0.313 | 0.239 | 1.04 | 0.971 | 0.895 | 0.96 | 1 | 0.299
NCI-H650 | 0.857 | 0.692 | 0.836 | 0.792 | 0.757 | 0.691 | 0.998 | 0.861 | 0.737 | 0.627 | 0.504 | 0.452 | 0.49 | 0.445 | 0.882 | 1.07 | 0.676 | 0.912 | 0.956 | –
NCI-H1651 | 0.821 | 0.866 | 0.885 | 0.846 | 0.842 | 0.883 | 1.03 | 0.891 | 0.904 | 0.985 | 0.39 | 0.327 | 0.335 | 0.396 | 0.924 | 0.961 | 0.956 | 0.94 | 1.01 | 0.336
NCI-H1437 | 1.02 | 1 | 0.955 | 0.976 | 0.792 | 0.533 | 0.635 | 0.549 | 0.565 | 0.64 | 0.617 | 0.371 | 0.377 | 0.309 | 0.595 | 0.48 | 0.562 | 0.392 | 0.451 | 0.263
NCI-H1975 | 1.09 | 1.05 | 0.948 | 1.09 | 0.83 | 0.409 | 0.403 | 0.357 | 0.402 | 0.389 | 0.365 | 0.344 | 0.36 | 0.326 | 0.363 | 0.392 | 0.297 | 0.365 | 0.358 | 0.285
BEN | 1.12 | 1 | 0.868 | 0.895 | 0.767 | 0.679 | 1.08 | 0.902 | 0.639 | 0.795 | 0.391 | 0.313 | 0.318 | 0.232 | 0.908 | 0.897 | 0.938 | 0.821 | 0.99 | 0.294
NCI-H460 | 1.01 | 0.895 | 0.902 | 0.926 | 0.929 | 1.38 | 1.15 | 1.12 | 1.13 | 1.13 | 0.607 | 0.496 | 0.493 | 0.565 | 0.99 | 1.09 | 1.09 | 1.21 | 1.05 | 0.321
HOP-62 | 0.821 | 1.06 | 1.14 | 0.89 | 0.902 | 0.779 | 0.828 | 0.56 | 1.07 | 1.06 | 0.703 | 0.529 | 0.579 | 0.41 | 0.875 | 1.15 | 0.508 | 0.75 | 0.818 | 0.603
HCC-366 | 0.71 | 0.778 | 0.547 | 0.358 | 0.385 | 1.06 | 1.13 | 1.1 | 0.953 | 1 | 0.664 | 0.536 | 0.584 | 0.628 | 1.13 | 1.01 | 1.01 | 1.07 | 1.12 | 0.43
NCI-H3122 | 0.272 | 0.301 | 0.271 | 0.297 | 0.309 | 1 | 1.01 | 0.978 | 0.924 | 0.964 | 0.941 | 0.836 | 0.78 | 0.83 | 1.09 | 0.96 | 0.93 | 1.04 | 1.08 | 0.714
NCI-H1650 | 1.02 | 1.23 | 0.911 | 1.04 | 0.911 | 0.182 | 0.212 | 0.184 | 0.199 | 0.222 | 0.292 | 0.294 | 0.303 | 0.225 | 0.232 | 0.192 | 0.207 | 0.192 | 0.207 | 0.261
NCI-H1355 | 1.11 | 1.16 | 1.09 | 1.05 | 1.15 | 1.05 | 1.29 | 1.12 | 1.23 | 1.18 | 0.78 | 0.73 | 0.678 | 0.734 | 1.21 | 1.21 | 1.01 | 1.07 | 1.13 | 0.563
